One compound from US20240099343A1, “USE OF GINGERDIOL COMPOUNDS TO ENHANCE FLAVOR” (Firmenich SA, priority 2021, published 2024) can be followed below.

The structures appear in SMILES notation.

Assay [1] can be described thus: Sensory testing with salt reduction, mushroom-based cream soup, panel of four expert tasters. The format is in vivo. The settings on record: 20% reduced salt (0.684%) with 1 ppm compound, scale from 1 to 10. The protocol: Sensory testing was carried out using a panel of four (4) expert tasters, who rated the taste of the a mushroom-based cream soup with: (a) a normal amount of salt (0.855%); (b) 20% reduced salt (0.684%); and (c) 20% reduced salt (0.684%) with 1 ppm [6]-gingerdiol-diacetate. The panelists rated the soups for salt intensity, umami intensity, bitter intensity, and overall liking on a scale from 1 to 10.

A short description of assay [2]: Sensory testing with salt reduction, meat flavoring formulation, panel of three expert tasters. The format is in vivo. The following applies: 20% reduced salt (0.646%) with 1 ppm compound, scale from 1 to 10. The procedure: Further sensory testing was carried out using a panel of three (3) expert tasters, who rated the taste of a meat flavoring formulation with: (a) a normal amount of salt ([…]); (b) 20% reduced salt (0.646%); and (c) 20% reduced salt (0.646%) with 1 ppm [6]-gingerdiol-diacetate. The panelists rated the soups for salt intensity, umami intensity, bitter intensity, and overall liking on a scale from 1 to 10.

In the case of `CCCCCC(CC(CCc1ccc(O)c(OC)c1)OC(C)=O)OC(C)=O` (centres unmarked) [Gingerdiol, [6]-gingerdiol-diacetate], in assay [1], the “Bitter (bitter intensity)” value was 0.0, the “Overall Liking” value was 2.3, the “Saltiness (salt intensity)” value is 3.3 and the “Umami (umami intensity)” value turned out to be 3.0. Moreover, in assay [2], the “Bitter (bitter intensity)” value is recorded as 2.3, the “Overall Liking” value was 5.0, the “Saltiness (salt intensity)” value is 5.3 and the “Umami (umami intensity)” value is given as 4.0.
